Activity calls are given as the source filed them. No cut-off for these calls is given here.
Assays:
[1] = biological target: T1, Histamine H1 receptor (Homo sapiens, UniProt P35367); experiment: Intrinsic activity; Tested up to 10 uM: no effects up to 1 uM
[2] = biological target: T1, Histamine H1 receptor
[3] = biological target: T1, Histamine H1 receptor; experiment: Intrinsic activity; Tested up to 100 uM: no effects up to 10 uM
[4] = biological target: T1, Histamine H1 receptor; remark: listed apart in the source
[5] = biological target: T1, Histamine H1 receptor; experiment: Intrinsic activity was determined; Tested up to 100 uM: no effects up to 10 uM
[6] = biological target: T1, Histamine H1 receptor; experiment: Intrinsic activity; Tested up to 10 uM: no effects up to 1 uM

T1 sequence (P35367 whole entry): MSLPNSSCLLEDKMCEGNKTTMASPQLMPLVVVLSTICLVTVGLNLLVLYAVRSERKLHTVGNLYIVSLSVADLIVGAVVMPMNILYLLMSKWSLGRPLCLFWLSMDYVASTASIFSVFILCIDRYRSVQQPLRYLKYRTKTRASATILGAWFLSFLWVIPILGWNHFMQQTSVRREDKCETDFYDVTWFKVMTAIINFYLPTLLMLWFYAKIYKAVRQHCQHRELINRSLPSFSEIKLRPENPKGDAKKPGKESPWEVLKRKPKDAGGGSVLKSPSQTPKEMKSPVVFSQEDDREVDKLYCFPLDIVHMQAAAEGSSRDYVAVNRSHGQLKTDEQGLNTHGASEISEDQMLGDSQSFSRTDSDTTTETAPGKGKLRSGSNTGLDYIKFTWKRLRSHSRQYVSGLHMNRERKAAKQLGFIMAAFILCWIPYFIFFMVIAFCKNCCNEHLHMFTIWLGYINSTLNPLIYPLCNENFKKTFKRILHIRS

Structure (SMILES) | Alpha [2] | IC50 [4] | also measured
NCCc1c[nH]c(CCC(c2ccccc2)c2ccc(Br)cc2)n1 (stereo not drawn) |  |  | Alpha [1]: inactive
NCCCCCCCCCCCc1c[nH]cn1 | -0.61 |  | 
NCCc1c[nH]c(-c2cccc(C(F)(F)F)c2)n1 | 0.91 |  | 
c1ccc(C(CCc2nc(CCN3CCCC3)c[nH]2)c2ccccc2)cc1 |  |  | Alpha [3]: inactive
CN(C)CCN(Cc1ccccc1)c1ccccn1 [TRIPELENNAMINE] | -0.84 | 0.0398 µM | 
NCCc1c[nH]c(CCCC(c2ccccc2)c2ccccc2)n1 | 0.02 |  | 
NCCc1cscn1 |  |  | Alpha [5]: inactive
NCCc1c[nH]c(CCCCC(c2ccccc2)c2ccccc2)n1 | -0.09 |  | 
NCCCCCCCCc1c[nH]cn1 | -0.54 |  | 
NCCCCCCCCCCc1cccnc1 | -0.76 | 2.51 µM | 
NCCCCCCCCCCCCc1ccncc1 | -0.67 | 0.398 µM | 
NCCCCCCCCCc1ccccn1 | -0.92 | 7.94 µM | 
NCCCCCCCCCCc1ccccn1 |  |  | Alpha [6]: inactive
c1nc(CCCCCCCCCCN2CCCC2)c[nH]1 | -0.61 | 0.398 µM | 
Cc1ccc(C(CCc2nc(CCN)c[nH]2)c2ccccc2)cc1 (stereo not drawn) |  |  | Alpha [1]: inactive
NCCc1ccccn1 | 1.11 | 1.26 µM | 
NCCc1c[nH]c(CC(c2ccccc2)c2ccccc2)n1 |  |  | Alpha [3]: inactive
NCCCCCCCCc1cnc[nH]1 |  | 3.16 µM | 
NCCCCCCCCCCCCc1ccccn1 |  |  | Alpha [6]: inactive
NCCc1c[nH]c(-c2ccc(Cl)c(Cl)c2)n1 | 0.5 |  | EC50 [4]: 50.1 µM

Structure (SMILES) | Alpha [2] | IC50 [4] | also measured
NCCc1c[nH]cn1 | 1 |  | 
c1ncc(CCCCCCCCN2CCCC2)[nH]1 |  | 0.631 µM | 
NCCCCCCCCCCCCc1cccnc1 | -0.78 | 1.26 µM | 
NCCc1c[nH]c(CCC(c2ccccc2)C2CCCCC2)n1 (stereo not drawn) |  |  | Alpha [1]: inactive
NCCCCCCCCCCCCCc1cnc[nH]1 |  | 1.26 µM | 
c1nc(CCCCCCCCN2CCCC2)c[nH]1 | -0.99 |  | 
NCCCCCCCCCc1c[nH]cn1 | -0.72 | 2 µM | 
NCCCCCCCCCCCCCc1c[nH]cn1 | -0.84 |  | 
NCCCCCCCCCCc1c[nH]cn1 | -0.54 | 0.501 µM | 
NCCCCCCCCCCc1ccncc1 | -1 | 2.51 µM | 
NCCCCCCCCCCCc1cnc[nH]1 |  | 0.251 µM | 
NCCCCCCCCCCCCCCc1c[nH]cn1 | -0.9 |  | 
NCCc1c[nH]c(CCC(c2ccccc2)c2ccccc2)n1 | 0.69 |  | 
c1nc(CCCCCCCCCCCCN2CCCC2)c[nH]1 | -0.46 | 3.98 µM | 
NCCCCCCCCCCCCCCc1cnc[nH]1 |  | 2 µM | 
NCCc1cnc(-c2cccc(C(F)(F)F)c2)[nH]1 |  |  | EC50 [4]: 1 µM
NCCc1cnc(CCC(c2ccccc2)c2ccccc2)[nH]1 |  | 0.794 µM | 
NCCc1c[nH]c(-c2cccc(Cl)c2)n1 | 1.28 |  | EC50 [4]: 2 µM
NCCCCCCCCCCCCc1c[nH]cn1 | -0.62 | 1 µM | 

From ChEMBL document CHEMBL1145948 (J Med Chem, 2003)
